# According to paper PMC12203428, “Discovery of Clonixeril as a Sub-Femtomolar Modulator of the Human STING Receptor” (ACS Central Science, 2025):
# “Also recorded” adds a separate entry of the source.
# How the values were obtained:
# [1] = tested on: THP1 STING knockout cells; experiment: STING knockout THP-1 luciferase assay; type: cell-based, human; settings: WT-THP1 vs THP1 STING knockout cells
# Source text: docking algorithm to properly calculate estimated free energies of binding for the LD-protein […]
# Differential Scanning Fluorimetry – Thermal Shift Experiment […]
# to the endogenous ligand, 2’,3’-cGAMP, 2) unbound and 3) bound to ligands chosen by the virtual screening process for their potential to stabilize the active form of the STING molecule by binding to it. A TSA measures a protein's melting temperature (Tm), at which the protein is 50% denatured. The assay quantifies protein denaturation by measuring the increase in fluorescence of a dye that binds to hydrophobic residues exposed by unfolding of the protein.
# To determine clonixeril’s hydrolytic stability and evaluate its potential as an oral drug, an aqueous solution was concentrated for analysis at 20 µM. The sample was analyzed by HPLC using an […]
# The UV spectra of these peaks were compared by diode array and found to be identical with maximum absorbance at 280nm and 343nm. […]
# the minor first peak matched the molecular weight of clonixin (M+H)+ and the second major peak matched the molecular weight of clonixeril (M+H)+. […] Hydrolysis of clonixeril to clonixin was measured by HPLC over seven days using a 20 µM aqueous solution. […]
# Figure S4. […] (D) Quantification of luciferase assay performed using WT-THP1 and THP1 STING knockout cells in the presence and absence of clonixeril and/or 2’,3’-cGAMP. […]
# [2] = tested on: hSTING WT pathway (THP1 Dual KI-hSTING-R232 cells, IRF3 luciferase reporter)
# Procedure: 2 Luciferase assay utilizing monocytic leukemia (THP-1) cells. Cells (Invivogen THP1 Dual KI-hSTING-R232; wild type) were analyzed for activation of the hSTING WT pathway via an IRF3 luciferase reporter. Luminescence is reported in relative luminescence units (RLU).
# A study was performed to determine that five hundred thousand cells/mL was the optimal cell density. An optimization study was performed to determine the maximum DMSO percentage so as not to impact the viability of the cells. […] The chosen concentration was 4 μM. The cells were tested with lipofectamine and compared to wells prepared without lipofectamine.
# SUMO-hSTING CTD = SUMO-hSTING CTD (Homo sapiens, UniProt Q86WV6, H232R); experiment: Isothermal titration calorimetry; type: binding; design: human STING (amino acid 155–343) was synthesized and subcloned into pET28a vector; made in house; host or cells: E. coli BL21(DE3)
# Source text: In order to further explore the interaction between CXL and hSTING CTD, we employed Isothermal calorimetry (ITC) to measure the heat evolved accompanying CXL’s effect on SUMO-hSTING^WT CTD. […] In Figure A, we show the ITC data we obtained. […]. […] In Figure B, we also find that the binding isotherm is far from steady state or equilibrium, and thus, we could not obtain reliable thermodynamic parameters. Nonetheless, a significant amount of heat was released in the process of CXL interacting with the hSTING CTD. On the other hand, we were most interested in ITC measurements taken at femtomolar concentrations, given the biophysical experiments and in cellulo studies already described. Initial experiments treating the hSTING CTD with femtomolar concentrations of CXL were unsuccessful, likely due to the insensitivity of the instrument. […]. MicroCal ITC200 instrument (Malvern Pananalytical) was used to assess STING and CXL interactions. Both recombinantly purified STING domains (residues 155–343) containing a SUMO tag and CXL were buffer-exchanged and made in the same buffer composition, respectively, to avoid buffer mismatch. The same buffer cocktail was used in all ITC experiments, containing 25 mM HEPES (pH, 7.4), 150 mM NaCl, 5% glycerol, 0.5 mM TCEP, and 5% DMSO. STING protein from −80 °C aliquots was spun down at 12,000 RPM for 5–10 min before each run to remove any aggregates, diluted into the ITC buffer above (either as 40 μM STING alone or as 40 μM STING plus 20 μM 2,3-cGAMP), and loaded into the cell. CXL at various concentrations for different experiments was loaded into the syringe (Hamilton). For the control and reference, an ITC buffer devoid of CXL was used. ITC experiments were conducted at 25 °C using an initial 0.4 μL injection and 19 subsequent injections of 2 μL each at 150 s intervals. Heat of dilution (differential power) of the 19 injections resulting from the binding event was fitted into the nonlinear least-squares equation incorporated in the MicroCal ITC200 analysis software. The K D and other thermodynamic parameters were derived from curve fitting using MicroCal software.
# Chain of SUMO-hSTING CTD (Q86WV6 155-343 H232R): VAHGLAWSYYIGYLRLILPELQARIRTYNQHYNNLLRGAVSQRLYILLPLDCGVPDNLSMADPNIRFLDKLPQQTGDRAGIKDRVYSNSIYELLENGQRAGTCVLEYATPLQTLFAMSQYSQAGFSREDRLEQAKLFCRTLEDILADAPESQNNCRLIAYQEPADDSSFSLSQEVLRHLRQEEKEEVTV
smiles,measurement,setting,value
"Cc1c(Cl)cccc1Nc1ncccc1C(=O)OCC(O)CO (stereo not shown) [CXL, clonixeril]",Pathway dependence of effect on pIRF3 production,[1],affecting pIRF3 production only through the STING pathway
same,Antagonism of hSTING pathway in luciferase reporter assay,"[2]; compound 1 h, then 4 μM 2′,3′-cGAMP",inverse dose response; also recorded: antagonism of the hSTING^WT pathway
same,Concentration of maximum inhibition,[2]; reviewer's summary of IRF3 reporter assay,100 aM
same,Heat produced,SUMO-hSTING CTD; 400 μM CXL into 40 μM hSTING CTD,essentially the same amount of heat as c-diGMP
same,Heat released per injection,"SUMO-hSTING CTD; 400 μM clonixeril + 20 μM 2′,3′-cGAMP, reviewer's reading of Fig 6C",13 kcal/mol
same,Heat evolution,"SUMO-hSTING CTD; 1.5 fM CXL into 40 μM SUMO-hSTING CTD + 20 μM 2′,3′-cGAMP",significant evolution of heat
same,Heat released per injection,"SUMO-hSTING CTD; 1.5 fM clonixeril into 40 μM hSTING CTD + 20 μM 2′,3′-cGAMP, first 15 injections",-7 to -2 kcal/mol
